One compound from paper PMC10961359, “Targeting hexokinase 2 for oral cancer therapy: structure-based design and validation of lead compounds” (Frontiers in Pharmacology, 2024) can be followed below.

Type in all cases: cell-based
Assay [1] concerns FaDu cells. As to the kind of experiment: Cell cycle analysis (propidium iodide, flow cytometry), FaDu. The conditions noted are these: 10 and 30 μM, 72 h. Here is the method:
(§1) FaDu and Cal27 cells were treated with the test compounds (0.5 million cells per treatment) for 72 h, and harvested for cell cycle analysis (Cat# BD340242) and apoptosis analysis (Cat# BD556547) by flow cytometry according to manufacturer’s instructions.
(§2) To determine the effect of HK2 inhibition in the progression of the cell cycle, flow cytometric analysis of compound-treated FaDu and Cal27 cells was carried out 72 h post-treatment. Cell cycle analysis is carried out to quantify the DNA content and estimate the percentages of the cell population in different cell cycle phases via propidium iodide staining. […] To determine the apoptosis-inducing activity of HK2 inhibitors, 10 and 30 μM of compounds H2 and H10 treated FaDu and Cal27 cells were stained with annexin V conjugated with FITC, followed by propidium iodide staining.

For the next assay, the system named is Cal27 cells. As to the kind of experiment: 2-NBDG glucose uptake assay (flow cytometry), Cal27. The conditions noted are these: Cal27, 10 μM and 30 μM, 72 h, vs DMSO control. The method, then: FaDu and Cal27 cells were treated with test compounds (0.2 million cells per treatment) and were incubated for 1 h with 100 μM of 2-NBDG (Invitrogen, N13195), in glucose free medium, washed with ice-cold PBS, and re-suspended in 500 μL of PBS and maintained on ice to perform flow cytometric analyses within 30 min. The mean fluorescent intensity (MFI) readout reflects the amount of fluorescent glucose analog taken up by the cells, providing insight into their glucose uptake capacity. The percent (%) cell population positive for glucose uptake (shown with a right shift of the histogram peaks) were also plotted for both the cell lines. For MMP analysis, cells were incubated with 200 nM of TMRE (Invitrogen, T669) for 30 min. For each measurement, data was collected for 10,000 events using a BD FACS Aria III (Becton Dickinson, San Jose, CA) instrument.
2-[N-(7-Nitrobenz-2-oxa-1,3-diaxol-4-yl) amino]-2-deoxyglucose (2-NBDG) uptake into cells happens via glucose transporters and post uptake 2-NBDG gets phosphorylated by hexokinases. Since cancer cells represent higher glycolytic activity, the inhibition of HK2 activity in cancer cells is actively reflected in the inhibition of 2-NBDG uptake ([Hung et al., 2022]; [Li et al., 2022]). […] In this assay, the MFI of intracellular 2-NBDG serves as a quantitative measure of cellular glucose uptake. […] This finding is further supported by the increased % population of 2-NBDG positive cells in Cal27 cells compared to FaDu cells (Figure 3).
For orientation: In flow cytometry, cells or beads pass a laser one at a time.

Assay [2] relates to mitochondrial HK2 (mitoHK2) in Cal27 cells. Briefly: Western blot fractionation, mitoHK2 dissociation. To be noted: 4 h. Here is the method:
Cal27 cells were treated with the test compound (1 million cells per treatment for 4 h) and were processed for mitochondria isolation using a homogenization buffer containing 210 mM mannitol, 70 mM sucrose, 5 mM tris-HCl, (pH 7.5) and 1 mM EDTA (pH 7.5). The cell pellet was sheared with a total of 90 strokes in the homogenization buffer in a span of 1 h on ice. The lysate was centrifuged at 800 rpm for 10 min and the mitochondria enriched supernatant was isolated. The pellet was again lysed using RIPA lysis buffer to obtain the cytosolic fraction. The mitochondrial fractions and the cytosolic fractions were loaded on a 10% SDS-PAGE gel. The antibodies used were anti-HK2 antibody (CST, Cat#2867), anti β-actin antibody (CST, Cat#4970) and mitochondrial marker anti-VDAC antibody (CST, Cat# 4661). The whole cell lysates were obtained using RIPA lysis buffer alone. The quantifications were performed using ImageJ software.
Mitochondria utilize the oxidizable substrates to produce a membrane potential as the proton gradient ([Sivandzade et al., 2019]). […] To determine the change in MMP post-treatment with HK2 inhibitors, the cells were treated with 200 nM of TMRE (tetramethyl rhodamine ethyl ester, a cell-permeant cationic dye readily sequestered by active mitochondria) and flow cytometric analyses of TMRE uptake was carried out. […]
(Immunoblotting shows a protein as a band on a membrane.)

In assay [3] the test system is FaDu cells. Briefly: Annexin V FITC / propidium iodide apoptosis assay, FaDu. To be noted: 10 and 30 μM, 72 h. Here is the method:
as §1, §2

Structures are written as SMILES.

As for `COc1ccc(CNC(=O)c2nc3ccccc3s2)cc1O` [Compound 14, N-(3-hydroxy-4methoxybenzyl)benzo[d]thiazole-2-carboxamide], in the assay on FaDu cells [1], the subG1 phase population result is on record as “increase in subG1 phase population”. Moreover, the “2-NBDG MFI” value with Cal27 cells is on record as “significant reduction”. Further, the “mitochondrial HK2 (mitoHK2) dissociation” value in assay [2] (Cal27, 30 μM) was “induced the dissociation of mitoHK2”. For the same compound, the “expression of total HK2 protein” value in assay [2] (Cal27 whole cell lysate, 30 μM) is “without altering the expression of total HK2 protein”. In the assay with FaDu cells [3], the apoptosis-inducing activity entry is “late apoptotic and necrotic effects”.
